Like-named read-outs stand apart in the source and are kept apart here.
What was measured:
[1] = Two-photon absorption cross-sectional area by Z scanning method; format: physicochemical; settings: measurement wavelength 550 nm; chloroform solution 1×10^−3
Experimental: Measurement of a two-photon absorption cross-sectional area of the synthesized compound is carried out by Z scanning method described in Mansoor Sheik-Baha et al., IEEE, Journal of Quantum Electronics, 1990, 26, 760. Z scanning method is a widely used method as the measuring method of a non-linear optical constant. In the vicinity of the focus of converged laser beam, a measuring sample is moved along the beam and the change of the quantity of transmitting light is recorded. Since the power density of incident light changes depending upon the position of a sample, the quantity of transmitting light attenuates in the vicinity of the focus in the case where non-linear absorption is present. A two-photon absorption cross-sectional area is computed by fitting the change of the quantity of transmitting light to the theoretical curve predictable from the intensity of incident light, the size of converging spot of light, the thickness of a sample and the concentration of a sample. As the light sources for the measurement of a two-photon absorption cross-sectional area, a Ti-sapphire pulse laser (pulse duration: 100 fs, repetition: 80 MHz, average output: 1 W, peak power: 100 kW) obtained by combining a […] amplifier and light parametric amplifier is used. […]

[2] = Evaluation of solubility of two-photon absorption compound; format: physicochemical; settings: coating solvent dichloromethane
Experimental: The solubility of the compounds of the invention D-11, D-41 and D-405 and comparative compound R-2 in dichloromethane and 2-butanone is evaluated.

[3] = measurement wavelength vicinity of 525 nm; value in document; cited from earlier work

Two-Photon Absorption Cross-Sectional Area [1] [GM] | Solubility (in words) [2] | Compound | Two-Photon Absorption Cross-Sectional Area [3] [GM]
200 | small in solubility | N#Cc1ccc(-c2ccc(-c3ccc(-c4ccc(C(=O)c5ccccc5)cc4)cc3)cc2)cc1 [Compound R-2] | –
– | – | CCCCCCC(CCCC)Oc1ccc(-c2ccc(-c3ccc(-c4ccc(OC(CCCC)CCCCCC)cc4)cc3)cc2)cc1 (stereo not drawn) [Compound R-1] | 15

— patent US8449794B2, “Non-resonant two-photon absorption recording material and non-resonant two-photon absorption compound” (FUJIFILM Corporation, priority 2010, dated 2013)
